ChEMBL document CHEMBL3399984, “Identification of Bacillus anthracis PurE inhibitors with antimicrobial activity” (Bioorg Med Chem, 2015)
pKi: −log10 of the molar value. In brackets after ≈: the same amount, converted by molar mass.

Assays:
Bacillus anthracis [1] = assay: Inhibition of recombinant Bacillus anthracis PurE assessed as change in melting temperature at 100 uM after 10 to 30 mins by high-throughput thermal shift screening
Francisella tularensis = assay: Antimicrobial activity against Francisella tularensis BEI/ATCC UTAH 112 measured after overnight incubation; format: functional
Bacillus anthracis [2] = assay: Antimicrobial activity against Bacillus anthracis deltaANR measured after overnight incubation; format: functional
Yersinia pestis = assay: Antimicrobial activity against Yersinia pestis BEI/ATCC A1122 measured after overnight incubation; format: functional
Bacillus anthracis [3] = assay: Inhibition of recombinant Bacillus anthracis PurE assessed as inhibition of 4-carboxy-amino-imidazole ribonucleotide to N5-carboxy-amino-imidazole ribonucleotide conversion preincubated for 1.5 mins at 10 uM by mass spectrometry analysis
Bacillus anthracis [4] = assay: Bactericidal activity against Bacillus anthracis deltaANR measured after 72 hrs; format: functional
[5] = Ratio of MIC for Yersinia pestis BEI/ATCC A1122 to MIC for Bacillus anthracis deltaANR; format: functional
Staphylococcus aureus [6] = assay: Antimicrobial activity against methicillin-sensitive Staphylococcus aureus ATCC 29213 measured after overnight incubation; format: functional
[7] = Ratio of MIC for Francisella tularensis BEI/ATCC UTAH 112 to MIC for Bacillus anthracis deltaANR; format: functional
Escherichia coli = assay: Antimicrobial activity against TolC-deficient Escherichia coli BW25113 measured after overnight incubation; format: functional
Staphylococcus aureus [8] = assay: Antimicrobial activity against methicillin-resistant Staphylococcus aureus ATCC 43300 measured after overnight incubation; format: functional
Bacillus anthracis [9] = assay: Ratio of MBC to MIC for against Bacillus anthracis deltaANR measured after 72 hrs; format: functional
[10] = Binding affinity to Gallus gallus PurE
[11] = Binding affinity to Escherichia coli PurE

Question: For O=C(Cc1ccc(NC(=O)c2ccc(F)cc2Cl)cc1)NCc1cccs1, which ΔTm (Bacillus anthracis [1]) is on record?
Answer: Its ΔTm is 1.8 °C.

Question: What about the MIC (Francisella tularensis) of the same molecule?
Answer: Its MIC is greater than 12.5 µg/mL.

Question: What about the MIC (Bacillus anthracis [2]) of the same molecule?
Answer: Its MIC is greater than 12.5 µg/mL.

Question: And the MIC (Yersinia pestis)?
Answer: Its MIC is greater than 12.5 µg/mL.

Question: And the inhibition (Bacillus anthracis [3])?
Answer: The inhibition was 20%.

Question: What does the source list for O=C(Oc1ccccc1)Oc1ccc(N(C(=O)Oc2ccccc2)S(=O)(=O)c2ccc3ccccc3c2)cc1Br?
Answer: ΔTm (Bacillus anthracis [1]): 5.2 °C; MIC (Bacillus anthracis [2]): > 12.5 µg/mL; inhibition (Bacillus anthracis [3]): 28%

Question: For COc1ccc(Cl)c(C(=O)Nc2nnc(-c3ccc(Br)cc3)o2)c1, which ΔTm (Bacillus anthracis [1]) is on record?
Answer: The ΔTm was 1.4 °C.

Question: What about the MIC (Francisella tularensis) of the same molecule?
Answer: The MIC was 1.2 µg/mL (≈ 2.94 µM).

Question: And the MBC (Bacillus anthracis [4])?
Answer: The MBC was greater than 12.5 µg/mL.

Question: And the MIC (Bacillus anthracis [2])?
Answer: Its MIC is 0.78 µg/mL (≈ 1.91 µM).

Question: And the Ratio [5]?
Answer: Its Ratio is 10.

Question: What about the MIC (Staphylococcus aureus [6]) of the same molecule?
Answer: The MIC was 1.56 µg/mL (≈ 3.82 µM).

Question: And the Ratio [7]?
Answer: Its Ratio is 10.

Question: And the MIC (Yersinia pestis)?
Answer: Its MIC is 3.1 µg/mL (≈ 7.59 µM).

Question: What about the inhibition (Bacillus anthracis [3]) of the same molecule?
Answer: The inhibition was 15%.

Question: And the MIC (Escherichia coli)?
Answer: Its MIC is 0.39 µg/mL (≈ 0.954 µM).

Question: And the MIC (Staphylococcus aureus [8])?
Answer: The MIC was 3.13 µg/mL (≈ 7.66 µM).

Question: And the MBC/MIC ratio (Bacillus anthracis [9])?
Answer: The MBC/MIC ratio was greater than 4 µg/mL.

Question: With NS(=O)(=O)c1ccc(NC(=O)CSc2nnc(-c3ccccc3)o2)cc1 as the molecule, how does the ΔTm (Bacillus anthracis [1]) read?
Answer: Its ΔTm is 1.5 °C.

Question: And the MIC (Bacillus anthracis [2])?
Answer: The MIC was greater than 12.5 µg/mL.

Question: And the inhibition (Bacillus anthracis [3])?
Answer: Its inhibition is 12%.

Question: Which results are given for Cc1ccc(C)c(-c2nnc(NC(=O)c3cc(Cl)sc3Cl)o2)c1?
Answer: ΔTm (Bacillus anthracis [1]): 1.1 °C; MIC (Francisella tularensis): 1.6 µg/mL (≈ 4.34 µM); MBC (Bacillus anthracis [4]): > 12.5 µg/mL; MIC (Bacillus anthracis [2]): 0.05 µg/mL (≈ 0.136 µM); Ratio [5]: 10; MIC (Staphylococcus aureus [6]): 0.78 µg/mL (≈ 2.12 µM); Ratio [7]: 10; MIC (Yersinia pestis): 3.1 µg/mL (≈ 8.42 µM); inhibition (Bacillus anthracis [3]): 20%; MIC (Escherichia coli): 0.07 µg/mL (≈ 0.19 µM); MIC (Staphylococcus aureus [8]): 1.95 µg/mL (≈ 5.3 µM); MBC/MIC ratio (Bacillus anthracis [9]): > 4 µg/mL

Question: Which results are given for O=C(NCc1c(-c2ccc(Cl)cc2)nc2n1CCS2)c1cccs1?
Answer: ΔTm (Bacillus anthracis [1]): 4.7 °C; MIC (Francisella tularensis): > 12.5 µg/mL; MIC (Bacillus anthracis [2]): > 12.5 µg/mL; MIC (Yersinia pestis): > 12.5 µg/mL; inhibition (Bacillus anthracis [3]): 11%

Question: With CC(=O)NC[C@H]1CN(c2ccc(N3CCOCC3)c(F)c2)C(=O)O1 [LINEZOLID] as the molecule, how does the MIC (Francisella tularensis) read?
Answer: Its MIC is 32 µg/mL (≈ 94.9 µM).

Question: What does the source list for O=C(O)c1cn(C2CC2)c2cc(N3CCNCC3)c(F)cc2c1=O [CIPROFLOXACIN]?
Answer: MIC (Francisella tularensis): 0.03 µg/mL (≈ 0.0905 µM); MIC (Bacillus anthracis [2]): 0.11 µg/mL (≈ 0.332 µM); MIC (Staphylococcus aureus [6]): 0.35 µg/mL (≈ 1.06 µM); MIC (Yersinia pestis): 0.04 µg/mL (≈ 0.121 µM); MIC (Staphylococcus aureus [8]): 0.34 µg/mL (≈ 1.03 µM)

Question: For Cc1c(C(=O)Nc2nnc(-c3cc(Cl)ccc3Cl)o2)c(-c2ccccc2)nc2ccccc12, which ΔTm (Bacillus anthracis [1]) is on record?
Answer: The ΔTm was 7.9 °C.

Question: What about the MIC (Francisella tularensis) of the same molecule?
Answer: The MIC was 3.1 µg/mL (≈ 6.52 µM).

Question: And the MBC (Bacillus anthracis [4])?
Answer: The MBC was greater than 12.5 µg/mL.

Question: And the MIC (Bacillus anthracis [2])?
Answer: Its MIC is 0.1 µg/mL (≈ 0.21 µM).

Question: What about the Ratio [5] of the same molecule?
Answer: The Ratio was 10.

Question: What about the MIC (Staphylococcus aureus [6]) of the same molecule?
Answer: The MIC was greater than 12.5 µg/mL.

Question: And the Ratio [7]?
Answer: Its Ratio is 10.

Question: What about the MIC (Yersinia pestis) of the same molecule?
Answer: The MIC was greater than 12.5 µg/mL.

Question: What about the inhibition (Bacillus anthracis [3]) of the same molecule?
Answer: Its inhibition is 19%.

Question: What about the MIC (Escherichia coli) of the same molecule?
Answer: The MIC was 0.39 µg/mL (≈ 0.82 µM).

Question: What about the MIC (Staphylococcus aureus [8]) of the same molecule?
Answer: Its MIC is 6.25 µg/mL (≈ 13.1 µM).

Question: And the MBC/MIC ratio (Bacillus anthracis [9])?
Answer: The MBC/MIC ratio was greater than 4 µg/mL.

Question: With CCCCC(CC)CNc1nc2c(c(=O)[nH]c(=O)n2C)n1CC(O)COc1ccc(C)c(C)c1 (stereo unspecified) as the molecule, how does the ΔTm (Bacillus anthracis [1]) read?
Answer: Its ΔTm is 1.8 °C.

Question: And the MIC (Francisella tularensis)?
Answer: Its MIC is greater than 12.5 µg/mL.

Question: What about the inhibition (Bacillus anthracis [3]) of the same molecule?
Answer: Its inhibition is 7%.

Question: For Cc1sc2ccsc2[n+]1CC(=O)O.[Br-], which ΔTm (Bacillus anthracis [1]) is on record?
Answer: The ΔTm was 4.4 °C.

Question: What about the MIC (Francisella tularensis) of the same molecule?
Answer: Its MIC is greater than 12.5 µg/mL.

Question: And the MIC (Bacillus anthracis [2])?
Answer: The MIC was greater than 12.5 µg/mL.

Question: And the MIC (Yersinia pestis)?
Answer: The MIC was greater than 12.5 µg/mL.

Question: What about the inhibition (Bacillus anthracis [3]) of the same molecule?
Answer: The inhibition was 17%.

Question: Which ΔTm (Bacillus anthracis [1]) does the source give for COc1cccc(C(=O)Nc2ccc(-c3cn4ccsc4n3)cc2)c1OC here?
Answer: The ΔTm was 3 °C.

Question: What about the MIC (Francisella tularensis) of the same molecule?
Answer: The MIC was greater than 12.5 µg/mL.

Question: And the MIC (Bacillus anthracis [2])?
Answer: The MIC was greater than 12.5 µg/mL.

Question: And the MIC (Yersinia pestis)?
Answer: Its MIC is greater than 12.5 µg/mL.

Question: And the inhibition (Bacillus anthracis [3])?
Answer: The inhibition was 17%.

Question: For COc1cccc(-c2nc(Cn3nnc(C(=O)NCc4ccc(Cl)cc4)c3N)c(C)o2)c1OC, which ΔTm (Bacillus anthracis [1]) is on record?
Answer: The ΔTm was 1.2 °C.

Question: What about the MIC (Francisella tularensis) of the same molecule?
Answer: Its MIC is greater than 12.5 µg/mL.

Question: And the MIC (Bacillus anthracis [2])?
Answer: Its MIC is greater than 12.5 µg/mL.

Question: And the inhibition (Bacillus anthracis [3])?
Answer: Its inhibition is 6%.

Question: Which ΔTm (Bacillus anthracis [1]) does the source give for Cc1ccc(C)c(-c2nnc(NC(=O)c3cccc(Cl)c3)o2)c1 here?
Answer: Its ΔTm is 2.4 °C.

Question: What about the MIC (Francisella tularensis) of the same molecule?
Answer: Its MIC is 6.3 µg/mL (≈ 19.2 µM).

Question: And the MBC (Bacillus anthracis [4])?
Answer: Its MBC is greater than 12.5 µg/mL.

Question: What about the MIC (Bacillus anthracis [2]) of the same molecule?
Answer: The MIC was 0.1 µg/mL (≈ 0.305 µM).

Question: What about the Ratio [5] of the same molecule?
Answer: The Ratio was 10.

Question: And the MIC (Staphylococcus aureus [6])?
Answer: The MIC was 0.2 µg/mL (≈ 0.61 µM).

Question: What about the Ratio [7] of the same molecule?
Answer: Its Ratio is 10.

Question: And the MIC (Yersinia pestis)?
Answer: Its MIC is greater than 12.5 µg/mL.

Question: What about the inhibition (Bacillus anthracis [3]) of the same molecule?
Answer: The inhibition was 19%.

Question: And the MIC (Escherichia coli)?
Answer: The MIC was 0.02 µg/mL (≈ 0.061 µM).

Question: And the MIC (Staphylococcus aureus [8])?
Answer: Its MIC is greater than 12.5 µg/mL.

Question: What about the MBC/MIC ratio (Bacillus anthracis [9]) of the same molecule?
Answer: The MBC/MIC ratio was greater than 4 µg/mL.

Question: With Nc1c([N+](=O)[O-])ncn1[C@@H]1O[C@H](COP(=O)(O)O)[C@@H](O)[C@H]1O as the molecule, how does the pKi [10] read?
Answer: Its pKi is 9.47.

Question: And the ΔTm (Bacillus anthracis [1])?
Answer: Its ΔTm is 5.6 °C.

Question: What about the inhibition (Bacillus anthracis [3]) of the same molecule?
Answer: Its inhibition is 24%.

Question: And the pKi [11]?
Answer: Its pKi is 6.30.

Question: What does the source list for O=C(Nc1cccc(C(F)(F)F)c1)N1CCN(c2ccc3nncn3n2)CC1?
Answer: ΔTm (Bacillus anthracis [1]): 3.1 °C; MIC (Francisella tularensis): > 12.5 µg/mL; MIC (Bacillus anthracis [2]): > 12.5 µg/mL; MIC (Yersinia pestis): > 12.5 µg/mL; inhibition (Bacillus anthracis [3]): 14%
